Consider six compounds from US11241455B2, “Methods of treating disease by metabolic control of T-cell differentiation” (The J. David Gladstone Institutes, a testamentary trust …, priority 2016, dated 2022).

Series [1] has as its system differentiating TH17 cells. Briefly: TH17 differentiation of CD4 naïve T cells (IL17F-RFP/FOXP3-GFP reporter or intracellular staining of IL-17 and FOXP3). Type of series: cell-based, mouse. The conditions noted are these: for rescue of the inhibitory effect of AOA on TH17 cell differentiation: in the presence of AOA, day 6, 0.75 mM α-KG, 0.5 mM 2-HG, 0.5 mM succinate, 50 μM fumarate, 0.5 mM malate, 0.5 mM citrate, 1 mM NAC, 1 mM GSH. As for the experimental part: (§1) CD4 naïve T cells (CD4+CD25-CD62^highCD44^low) were obtained from interleukin (IL)-17F-red fluorescent protein (RFP)/FOXP3-green fluorescent protein (GFP) mice, which were characterized previously, or wild-type C57/BL6 mice, by cell sorting. 0.4 million cells were plated into 48 wells coated with anti-mouse CD3 (clone 145-2C11, eBioscience) […] and anti-mouse CD28 (clone 37.51, eBioscience) (1 μg/ml). The differentiation media for these naïve T cells was as follows: 0.5 ng/ml (or indicated) transforming growth factor (TGF) β, 200 U/ml mouse IL-2, 2 μg/ml anti-interferon (IFN) γ and 2 μg/ml anti-mouse IL4 for differentiation into iTreg cells; and 2.5 ng/ml TGFβ, 10 ng/ml mouse IL-1β, 10 ng/ml mouse IL-6, 10 ng/ml mouse IL-23, 2 μg/ml anti-mouse IFNγ, and anti-mouse IL-4 for differentiating into TH17 cells. The cells were supplemented with new medium at day 4. In cases in which small-molecule compounds were present, the fresh medium containing the same concentration of compounds was used. When necessary, the individual metabolite was added into the T-cell culture 6 hours later after initial cell plating. On day 6, the cells were analyzed for IL17F-RFP and FOXP3-GFP or the cells were collected and restimulated for 4-6 hours with PMA, inomycin, and Golgi-stop for intracellular staining in absence of indicated compounds.
To identify small molecules that regulate cell-fate switching of TH17/iTreg cells and to further understand the regulation of the TH17/iTreg balance, 10,000 individual small molecules were phenotypically screened using CD4 naïve T cells from IL-17F-RFP/FOXP3-GFP mice. The naïve T cells were cultured under optimal TH17 differentiation conditions and compounds that could reprogram TH17 differentiation toward iTreg cell fate were identified using the reporter readout. Briefly, after TH17 differentiation for 24 hours, compounds were added to TH17 culture, and the treatment was continued for an additional 5 days before the cells were analyzed for IL17F-RFP and FOXP3-GFP expression by high-throughput fluorescence-activated cell sorting (FACS) (FIG. 5a). […] This effect of reprogrammed differentiation was further confirmed by intracellular immunostaining of IL-17 and FOXP3 (FIG. 1a).

Series [2] has as its system differentiating iTreg cells. The series can be described thus: iTreg differentiation of CD4 naïve T cells (FOXP3-GFP reporter or intracellular staining of FOXP3). It counts as cell-based, mouse. The conditions noted are these: for reversal of the enhancing effect of AOA on iTreg cell differentiation: in the presence of AOA, day 5, 0.5 mM α-KG, 0.125 mM 2-HG (0.25 mM in FIG. 2g), 0.5 mM succinate, 50 μM fumarate, 0.5 mM malate, 0.5 mM citrate. As for the experimental part: as §1, with “On day 6, the cells were analyzed for IL17F-RFP and FOXP3-GFP or the cells were collected and restimulated for 4-6 hours with PMA, inomycin, and Golgi-stop for intracellular staining in absence of indicated compounds.” left out

The target of series [3] is T1, Got1 (Mus musculus, UniProt P05201).
T1 construct: Got1 was knocked down in differentiating TH17 cells with retrovirus containing GFP and shRNA against Got1; endogenous in cells; host or cells: primary mouse CD4 naive T cells differentiated under TH17 conditions
T1 sequence (P05201 whole entry): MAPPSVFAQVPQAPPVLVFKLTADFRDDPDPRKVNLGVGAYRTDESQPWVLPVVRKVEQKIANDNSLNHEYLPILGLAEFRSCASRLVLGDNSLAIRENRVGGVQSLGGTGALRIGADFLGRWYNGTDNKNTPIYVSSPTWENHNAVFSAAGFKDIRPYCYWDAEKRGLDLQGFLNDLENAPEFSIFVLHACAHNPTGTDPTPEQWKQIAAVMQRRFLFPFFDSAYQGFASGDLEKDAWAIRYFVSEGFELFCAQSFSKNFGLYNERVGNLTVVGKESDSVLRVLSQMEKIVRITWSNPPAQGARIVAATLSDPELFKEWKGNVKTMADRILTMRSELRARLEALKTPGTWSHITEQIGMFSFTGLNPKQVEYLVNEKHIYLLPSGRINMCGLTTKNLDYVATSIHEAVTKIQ
The series can be described thus: Retroviral shRNA knockdown of Got1 in differentiating TH17 cells, intracellular staining of FOXP3 and IL-17. It counts as cell-based. Conditions: sorted GFP+ cells, TH17 condition, day 6; versus empty vector or GFP− cells. As for the experimental part:
(§2) Short hairpin RNAs (ShRNAs) (synthesized DNA oligos), after annealing, were cloned into PMKO.1-GFP retrovirus vector. The plasmids and pCL-ECO (1:1) were transfected into 293T cells with Fugene® HD4 (Promega). The medium was changed 6 hours after transfection, and the cells were further cultured for 48-72 hours. The supernatant was then collected and filtered using […]. The supernatant containing the viruses was added into pre-activated CD4+ T cells (20 hours after initial plating). The cells were spin-infected at 1000 g for 2 hours and cultured in incubator for another 2 hours. The cells were washed and cultured under TH17 conditions for an additional 4 days. New medium was added if necessary. At day 5, the cells were collected for sorting GFP+ cells and GFP− cells. Sorted cells were further cultured until day 6, and re-stimulated for intracellular staining or mRNA analysis, as described above.

Series [4] has as its system FOXP3 promoter and its intronic CpG island. The series can be described thus: Methylation analysis by bisulfite sequencing, T cells under TH17 condition. Type of series: cell-based, mouse. The conditions noted are these: 0.5 mM dimethyl R-2-HG (day 4) or AOA (day 6), male mice. As for the experimental part: (§3) The method is essentially the same as described previously (Kim, et al. J Exp Med 204 (7), 1543-1551 (2007)). Briefly, genomic DNA was purified with Blood & Cell Culture DNA Midi Kit (Qiagen). Bisufite conversion of genomic DNA was performed using Epitect® bisulfite kit (Qiagen), according to the manufacture's instruction. The PCR product was run on 2% agarose, purified and cloned using TOPO® TA Cloning® Kit with PCR®4. Clones are picked for Sanger sequencing.

For series [5] the test system is unchanged. Briefly: Methylation analysis by bisulfite sequencing, T cells under iTreg condition. Conditions: iTreg condition (day 5); 0.5 mM dimethyl R-2-HG or AOA; male mice. Type of series: cell-based, mouse. As for the experimental part: as §3
The subject of series [6] is FOXP3, Il17, Il17f, and Rorc mRNA in TH17 cells. The series can be described thus: mRNA expression analysis by qRT-PCR in TH17 cells. It counts as cell-based, mouse. The conditions noted are these: normalized to β-actin. As for the experimental part: (§4) At the end of differentiation (day 6), T cells were re-stimulated with plate-coated anti-CD3 and anti-CD28 for 5 hours in the absence of any small-molecule compounds or metabolites. Quantitative reverse transcriptase polymerase chain reaction (qRT-PCR) was performed to evaluate mRNA expression of FOXP3, Il17, Il17f, and Rorc. For differentiating TH17 or iTreg cells, cells were collected on day 2.5 or at the indicated time for mRNA expression analysis. The expression was normalized to β-actin.

The test system of series [7] is FOXP3 mRNA in iTreg cells. Briefly: mRNA expression analysis by qRT-PCR in iTreg cells. It counts as cell-based, mouse. The conditions noted are these: normalized to β-actin. As for the experimental part: as §4
On the technique in general: In qPCR the cycle at which signal appears reflects the starting amount.

For series [8], the system named is IDH1 and IDH2. Briefly: Retroviral shRNA knockdown of IDH1 and/or IDH2 in T cells under TH17 condition, intracellular staining of IL-17 and FOXP3. It counts as cell-based, mouse. The conditions noted are these: sorted GFP+ cells cultured under TH17 condition. As for the experimental part: as §2
2-HG, which was originally identified in cancer cells harboring isocitrate dehydrogenase (IDH) 1/2 mutation, is also known to be produced via wild-type IDH1 and IDH2 reactions as well. Among all the dehydrogenases examined in this study, only IDH1 and 2 are highly expressed in differentiating TH17 cells (FIGS. 10a, 10d). […] GFP+ cells and GFP− cells were sorted and analyzed by intracellular staining of IL-17 and FOXP3.

The subject of series [9] is IDH1 and/or IDH2 mRNA. Briefly: mRNA expression of IDH1 and IDH2 in shRNA-infected GFP+ cells. The conditions noted are these: GFP+ cells re-stimulated with anti-CD3 and anti-CD28; normalized to β-actin. Type of series: cell-based, mouse. As for the experimental part: as §4
as §2, with “Sorted cells were further cultured until day 6, and re-stimulated for intracellular staining or mRNA analysis, as described above.” left out

Where [10] appears, read: re-stimulated with anti-CD3 and anti-CD28 for 5 hours.

Turning to `COC(=O)CCC(=O)C(=O)OC` [dimethyl-α-KG], in series [1], the “rescue of the inhibitory effect of AOA on TH17 cell differentiation” value was “rescued the inhibitory effect of AOA on TH17 differentiation”. Besides, the “reversal of the enhancing effect of AOA on iTreg cell differentiation” value in series [2] was “reversed its enhancing effect on iTreg differentiation”.

As to “GOT1-1: shRNA targeting GOT1 (SEQ ID NO: 47) in PMKO.1-GFP retrovirus vector (CCGGCCACATGAGAAGACGTTTCTTCTCGAGAAGAAACGTCTTCTCATGTGGTTTTTG)”, in series [3], the “percentage of IL17+ cells” value was “reduced” and the “proportion of FOXP3+ cells” value is “reciprocally increased”.

For the compound “GOT1-2: shRNA targeting GOT1 (SEQ ID NO: 48) in PMKO.1-GFP retrovirus vector (CCGGGTCGAACAGAAGATTGCTAATCTCGAGATTAGCAATCTTCTGTTCGACTTTTTG)”, in series [3], the “percentage of IL17+ cells” value is “reduced” and the “proportion of FOXP3+ cells” value is recorded as “reciprocally increased”.

On to `COC(=O)CC[C@@H](O)C(=O)OC` [Dimethyl R-2-HG, (R)-dimethyl 2-hydroxyglutarate], for which the “direct effect on TH17 cell differentiation (IL-17/IL-17F and FOXP3 expression)” value in series [1] (in the absence of AOA, exogenously added dimethyl metabolite) is “directly promoted TH17 cell differentiation by up-regulating IL-17/IL-17F expression and down-regulating FOXP3 expression in a dose-dependent manner”. Also, the “rescue of the inhibitory effect of AOA on TH17 cell differentiation” value in series [1] is given as “rescued the inhibitory effect of AOA on TH17 differentiation”. For the same compound, the “methylation level of FOXP3 promoter and its intronic CpG island” value in series [4] and in [5] was “dramatically increase methylation level” each time. The “FOXP3 mRNA expression” value in series [6] and in [7] was “suppressed FOXP3 mRNA expression” throughout. Also, in series [6] (setting [10]), the “Il17/Il17f mRNA level” value was “increased Il17/Il17f mRNA”. Moreover, the “Rorc mRNA level” value in series [6] (setting [10]) is on record as “did not affect Rorc mRNA”. In addition, the “FOXP3 expression under iTreg condition” value in series [2] (in the absence of AOA, analyzed on day 5) is “inhibited FOXP3 expression”. For the same compound, in [2], the “reversal of the enhancing effect of AOA on iTreg cell differentiation” value is “reversed its enhancing effect on iTreg differentiation”.

Turning to “shRNA against IDH2: shRNA targeting IDH2 (SEQ ID NO: 50) in PMKO.1-GFP retrovirus vector (CCGGGAAGAGTTCAAGCTGAAGAAACTCGAGTTTCTTCAGCTTGAACTCTTCTTTTTG)”, the “reduction of the percentage of IL-17 producing cells” value in series [8] was “approximately 30%”. Moreover, the “mRNA expression of IDH1 and/or IDH2” value in series [9] was “efficiently suppressed the mRNA expression”.

“shRNA against IDH1: shRNA targeting IDH1 (SEQ ID NO: 49) in PMKO.1-GFP retrovirus vector (CCGGCCTGGGCTTAGAATGAGTCTTCTCGAGAAGACTCATTCTAAGCCCAGGTTTTTG)”: the “reduction of the percentage of IL-17 producing cells” value in series [8] is given as “approximately 30%”. Further, the “mRNA expression of IDH1 and/or IDH2” value in series [9] is “efficiently suppressed the mRNA expression”.
